Laboratory results: article PMC8209153, “Improvement in aqueous solubility of achiral symmetric cyclofenil by modification to a chiral asymmetric analog” (Scientific Reports, 2021)
In brackets after ≈: the same amount, converted by molar mass.

How the values were obtained:
[1] = Crystal density (X-ray crystallography); assay type: physicochemical; conditions: measured crystal density
[2] = system: human cryopreserved hepatocytes; test: Metabolic rate of prodrugs in human cryopreserved hepatocytes; assay type: in vitro ADME; conditions: human hepatocytes 1.0×10^6 cells/mL, 50 μM, 2 h, 37 °C
Method: The metabolic rate of prodrugs was evaluated using human cryopreserved hepatocytes (Table 3). Although the metabolic rate of 3d with a bulky acyl group was decreased, most of the asymmetric structural analogs, including those with improved aqueous solubility (3b, 4a, (R)-4c), were metabolized to the active form as quickly as 1. Thus, we concluded that the chemical modifications applied here had little effect on the metabolic rate.
(§1) Test compounds (final 50 μM) in DMSO (final 0.5%) were added to a suspension of human hepatocytes (HMCS1S, Thermo Fisher Scientific) at a density of 1.0×10^6 cells/mL. The cells were incubated at 37 °C in humidified incubator (5% CO2) for 2 h, and then acetonitrile was added to stop the reaction. The mixture was vortexed and centrifuged at 15000 rpm for 10 min. HPLC analysis of the supernatant was performed on an analytical column (ODS reversed-phase column, 5 μm, 4.6 mm x 150 mm) eluted with a mobile phase consisting of H2O and CH3CN at a flow rate of 1.0 mL/min at 37 °C, with UV monitoring at 254 nm. Because some analogs were hydrolyzed in the absence of hepatocytes, we also evaluated the hydrolysis rate without hepatocytes.

[3] = Membrane permeability by retention on IAM column; assay type: in vitro ADME; conditions: IAM.PC.DD2 column, 0.1 M phosphate buffer (pH 6.8) in 60% CH3CN, 1.0 mL/min, 37 °C
Method: Membrane permeability was determined by HPLC on an IAM.PC.DD2 column (Regis Technologies, Inc., 10 μm, 300 Å, 30 mm × 4.6 mm) eluted with mobile phase consisting of 0.1 M phosphate buffer (pH 6.8) and CH3CN (4:6) at a flow rate of 1.0 mL/min, with UV monitoring at 254 nm, 37 °C.
Firstly, we evaluated membrane permeability by using an Immobilized Artificial Membrane (IAM) column, which contains silica gel bearing phosphatidylcholine and widely utilized to predict membrane permeability[31],[32].

LogP = assay type: physicochemical
Description: LogP values of all analogs were higher than that of 1, as expected. […] The observation that the measured crystal densities of 3b, 4a and (R)-4c were lower than that of 1 supports this idea.

[4] = Thermodynamic aqueous solubility of the most stable crystals; assay type: physicochemical; conditions: for solubility at 48 h: phosphate buffer/EtOH (6:4), aqueous with cosolvent or surfactant or cyclodextrin, thermodynamic from solid, mixture of 0.067 M phosphate buffer (pH 6.8) and EtOH (6:4), shaken 48 h at 4 °C, most stable crystals; for Fold more soluble than symmetric isomer 6: relative to 6
Method: The crystals were ground with an agate mortar and suspended in a mixture of 0.067 M phosphate buffer (pH 6.8) and EtOH (6:4). The suspension was shaken for 48 h at 4 °C, then filtered through a Millipore Millex-LG filter (0.20 μm). The filtrate was diluted in DMF and subjected to HPLC. The solubility was calculated by the absolute calibration curve method. We used a mixed solvent because the solubility in 0.067 M phosphate buffer (pH 6.8) was too low to allow quantification. EtOH is used clinically as a solubilizer for insoluble drugs such as taxol and pacritaxel. When the solutions were shaken at 37 °C, hydrolysis of the ester moiety occurred, and therefore the suspensions were shaken at 4 °C.

[5] = Hydrolysis of prodrugs without hepatocytes; assay type: in vitro ADME; conditions: 50 μM, 2 h, 37 °C
Method: as §1

ERα = target: T1, ERα (Homo sapiens, UniProt P03372); test: Luciferase reporter gene assay, ERα antagonistic activity; assay type: cell-based; conditions: HEK 293 cells, GAL4N-human ERα ligand binding domain, with 0.3 nM estradiol, 24 h; mean ± SD
T1 construct: expressed in transfected cells; host or cells: HEK 293 cells
T1 sequence (P03372 311-547 limits assumed): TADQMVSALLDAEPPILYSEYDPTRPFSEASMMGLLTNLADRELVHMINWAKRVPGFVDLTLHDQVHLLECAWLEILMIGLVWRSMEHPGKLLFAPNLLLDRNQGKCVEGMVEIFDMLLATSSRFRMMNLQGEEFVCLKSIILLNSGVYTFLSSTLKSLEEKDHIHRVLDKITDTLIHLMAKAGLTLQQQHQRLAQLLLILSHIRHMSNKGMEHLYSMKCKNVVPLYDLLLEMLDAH
Method: (§2) HEK 293 cells were cultured in DMEM supplemented with 10% FBS and penicillin and streptomycin at 37 °C in a humidified incubator (5% CO2).
(§3) HEK 293 cells were plated at 20% confluence in a 96-well plate at 24 h prior to transfection. Transfection of plasmids (CMX-GAL4N-human ERα/β ligand binding domain, TK-MH100x4-Luc, CMX-β-galactosidase) was performed by the calcium phosphate coprecipitation method. Test compounds in DMSO (final 0.5%) were added at 24 h after transfection, together with 0.3 nM estradiol. The plate was incubated for 24 h, then luciferase substrate solution was added to each well and luminescence was measured on an EnVision microplate reader. β-Galactosidase was added and the absorbance was measured on the microplate reader with emission detection at 405 nm. Each sample was evaluated in triplicate for two times and the mean value was calculated. A six-point sigmoidal dose-response curve was generated for each compound. The IC50 value for each compound was calculated by Origin software. In Table 4, biological reproducibility is reported as the mean IC50 SD.

ERβ = target: T2, ERβ (Homo sapiens, UniProt Q92731); test: Luciferase reporter gene assay, ERβ antagonistic activity; assay type: cell-based; conditions: HEK 293 cells, GAL4N-human ERβ ligand binding domain, with 0.3 nM estradiol, 24 h; mean ± SD
T2 construct: expressed in transfected cells; host or cells: HEK 293 cells
Method: as §2, §3

[6] = Aqueous solubility in 0.067 M phosphate buffer pH 7.4; assay type: physicochemical
Method: Cyclofenil (1) is an antagonist of estrogen receptors (ER) α and β that is clinically used to treat menstrual disturbances, anovulatory infertility and menopausal symptoms (Fig. 1). However, 1 has poor aqueous solubility (< 1 μg/mL in 0.067 M phosphate buffer pH 7.4). We considered that this low solubility might be due to the symmetric structure (σ = 2, point group: C2v), and we hypothesized that chemical modification of 1 to an asymmetric structure (point group: Cs and C1) would improve the aqueous solubility. To investigate the relationship between molecular shape (symmetry) and aqueous solubility, we focused on a small chemical modification, that is, introduction of a hydrophobic alkyl group. Cyclofenil (1) is a prodrug that is hydrolyzed by esterases after administration, and the active form is diol 2. Therefore, we initially considered that replacement of an acetyl group on 1 with a different acyl group (3a–d) might improve the aqueous solubility without loss of biological activity. As a second approach, we designed methylated analogs 4a–c substituted at the 2-/3-position of the phenyl group or the 3-position of the cyclohexyl group, respectively. We also designed symmetrical analogs 5a–c and 6 for comparison.

[7] = phosphate buffer (pH 6.8)/EtOH (6:4)

T2 sequence (Q92731 264-498 limits assumed): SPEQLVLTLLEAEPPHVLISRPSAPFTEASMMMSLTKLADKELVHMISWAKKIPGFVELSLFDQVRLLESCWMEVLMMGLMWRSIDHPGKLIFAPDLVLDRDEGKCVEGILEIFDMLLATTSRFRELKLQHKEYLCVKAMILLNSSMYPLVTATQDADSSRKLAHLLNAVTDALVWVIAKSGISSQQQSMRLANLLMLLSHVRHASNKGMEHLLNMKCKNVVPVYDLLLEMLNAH

SMILES	Crystal density [1]	Hydrolysis rate with hepatocytes [2]	Retention time on IAM column [3]	melting point	logP (LogP)	solubility at 48 h [4]	Fold more soluble than symmetric isomer 6 [4, 7]	Fold more soluble than 1 ([4]; relative to cyclofenil (1), phosphate buffer (pH 6.8)/EtOH (6:4))	Hydrolysis rate without hepatocytes [5]	IC50 (ERα)	IC50 (ERβ)	solubility [6]	Fold more soluble than symmetric isomer 5a ([4]; relative to 5a, phosphate buffer (pH 6.8)/EtOH (6:4))
CC(=O)Oc1ccc(C(=C2CCC[C@@H](C)C2)c2ccc(OC(C)=O)cc2)cc1 [(R)-4c, (R)-((3-Methylcyclohexylidene)methylene)bis(4,1-phenylene)diacetate]	1.227 g/mL	100%	3.93 min	92 °C	5.34	27.8 µg/mL (≈ 73.5 µM)	7.7 fold	3.6 fold	13.8%	–	–	–	–
C[C@@H]1CCCC(=C(c2ccc(O)cc2)c2ccc(O)cc2)C1 [(R)-13a, (R)-4,4’-((3-Methylcyclohexylidene)methylene)diphenol]	–	–	–	–	–	–	–	–	–	16 ± 0.71 nM	4.5 ± 0.57 nM	–	–
CC(=O)Oc1ccc(C(=C2CCCCC2)c2ccc(OC(C)=O)cc2)cc1 [Compound 1, cyclofenil]	1.268 g/mL	100%	3.15 min	–	4.91	7.76 µg/mL (≈ 21.3 µM)	–	–	14.8%	–	–	< 1 µg/mL	–
Oc1ccc(C(=C2CCCCC2)c2ccc(O)cc2)cc1 [Compound 2, Bis(4-hydroxyphenyl)methylenecyclohexane, reference compound]	–	–	–	–	–	–	–	–	–	13 ± 7.5 nM	4.5 ± 0.99 nM	–	–
CCC(=O)Oc1ccc(C(=C2CCCCC2)c2ccc(OC(C)=O)cc2)cc1 [Compound 3a, 4-((4-Acetoxyphenyl)(cyclohexylidene)methyl)phenylpropionate]	–	100%	4.22 min	132.8 °C	5.48	3.38 µg/mL (≈ 8.93 µM)	–	–	15.8%	–	–	–	–
CCCC(=O)Oc1ccc(C(=C2CCCCC2)c2ccc(OC(C)=O)cc2)cc1 [Compound 3b, 4-((4-Acetoxyphenyl)(cyclohexylidene)methyl)phenylbutyrate]	1.236 g/mL	92.1%	5.97 min	69 °C	6	10.8 µg/mL (≈ 27.5 µM)	–	–	6.3%	–	–	–	17.3 fold
CC(=O)Oc1ccc(C(=C2CCCCC2)c2ccc(OC(=O)C(C)C)cc2)cc1 [Compound 3c, 4-((4-Acetoxyphenyl)(cyclohexylidene)methyl)phenylisobutyrate]	–	94.5%	5.93 min	136.5 °C	6.01	0.719 µg/mL (≈ 1.83 µM)	–	–	0%	–	–	–	–
CC(=O)Oc1ccc(C(=C2CCCCC2)c2ccc(OC(=O)C(C)(C)C)cc2)cc1 [Compound 3d, 4-((4-Acetoxyphenyl)(cyclohexylidene)methyl)phenylpivalate]	–	77.7%	8.44 min	127 °C	6.5	2.25 µg/mL (≈ 5.53 µM)	–	–	0%	–	–	–	–
CC(=O)Oc1ccc(C(=C2CCCCC2)c2ccc(OC(C)=O)c(C)c2)cc1 [Compound 4a, 4-((4-Acetoxy-3-methylphenyl)(cyclohexylidene)methyl)phenylacetate]	–	100%	3.72 min	114 °C	5.26	10.3 µg/mL (≈ 27.2 µM)	2.9 fold	–	0%	–	–	–	–
CC(=O)Oc1ccc(C(=C2CCCCC2)c2ccc(OC(C)=O)cc2C)cc1 [Compound 4b, 4-((4-Acetoxy-2-methylphenyl)(cyclohexylidene)methyl)phenylacetate]	–	–	–	99.9 °C	5.12	23.6 µg/mL (≈ 62.4 µM)	6.5 fold	–	–	–	–	–	–
CCC(=O)Oc1ccc(C(=C2CCCCC2)c2ccc(OC(=O)CC)cc2)cc1 [Compound 5a, (Cyclohexylidenemethylene)bis(4,1-phenylene)dipropionate]	–	–	–	139 °C	6.02	0.622 µg/mL (≈ 1.58 µM)	–	–	–	–	–	–	–
CCCC(=O)Oc1ccc(C(=C2CCCCC2)c2ccc(OC(=O)CCC)cc2)cc1 [Compound 5b, (Cyclohexylidenemethylene)bis(4,1-phenylene)dibutyrate]	1.244 g/mL	–	–	80.9 °C	7.08	0.964 µg/mL (≈ 2.29 µM)	–	–	–	–	–	–	–
CC(C)C(=O)Oc1ccc(C(=C2CCCCC2)c2ccc(OC(=O)C(C)C)cc2)cc1 [Compound 5c, (Cyclohexylidenemethylene)bis(4,1-phenylene)bis(2-methylpropanoate)]	–	–	–	129 °C	7.16	0.0811 µg/mL (≈ 0.193 µM)	–	–	–	–	–	–	–
CC(=O)Oc1ccc(C(=C2CCC(C)CC2)c2ccc(OC(C)=O)cc2)cc1 (stereo not shown) [Compound 6, ((4-Methylcyclohexylidene)methylene)bis(4,1-phenylene)diacetate]	1.243 g/mL	–	–	137 °C	5.41	3.61 µg/mL (≈ 9.54 µM)	–	–	–	–	–	–	–
Cc1cc(C(=C2CCCCC2)c2ccc(O)cc2)ccc1O [Compound 10a, 4-(Cyclohexylidene(4-hydroxyphenyl)methyl)-2-methylphenol]	–	–	–	–	–	–	–	–	–	120 ± 7.1 nM	51 ± 40 nM	–	–
